We go through six compounds from patent US7192943B2, “Cephem compounds” (Astellas Pharma Inc., priority 2003, dated 2007).

Values after ≈ are worked out from the molar mass of the structure shown.

The test relates to Pseudomonas aeruginosa FP 1380. In words: In vitro antibacterial activity (MIC) by two-fold agar-plate dilution method. The format is cell-based. The following applies: FP1380; test strain Pseudomonas aeruginosa FP 1380; heart infusion agar, incubation at 37° C. for 20 hours. The protocol:
Now in order to show the utility of the object compound [I], the test data on MIC (minimal inhibitory concentration) of a representative compound of this invention are shown in the following.
In vitro antibacterial activity was determined by the two-fold agar-plate dilution method as described below.
One loopful of an overnight culture of each test strain in Trypticase-soy broth (10^6 viable cells per ml) was streaked on heart infusion agar (HI-agar) containing graded concentrations of representative test compound, and the minimal inhibitory concentration (MIC) was expressed in μg/ml after incubation at 37° C. for 20 hours.
The compound `CC(C)(O/N=C(\C(=O)N[C@@H]1C(=O)N2C(C(=O)[O-])=C(C[n+]3ccccc3)CS[C@H]12)c1csc(N)n1)C(=O)O` [Ceftazidime, reference compound] had a minimal inhibitory concentration (MIC) of 128 µg/mL (≈ 234 µM).
Then `Cn1c(N)c(NC(=O)CC(=O)NC(CN)CN)c[n+]1CC1=C(C(=O)[O-])N2C(=O)[C@@H](NC(=O)/C(=N\OC(C)(C)C(=O)O)c3nsc(N)n3)[C@H]2SC1` [Compound (e), 7β-[(Z)-2-(5-amino-1,2,4-thiadiazol-3-yl)-2-(1-carboxy-1-methylethoxyimino)acetamido]-3-{3-amino-4-[(3-{[2-amino-1-(aminomethyl)ethyl]amino}-3-oxopropanoyl)amino]-2-methyl-1-pyrazolio}methyl-3-cephem-4-carboxylate], with 1 µg/mL (≈ 1.36 µM).
Then `Cn1c(N)c(NC(=O)N(CCN)CCN)c[n+]1CC1=C(C(=O)[O-])N2C(=O)[C@@H](NC(=O)/C(=N\OC(C)(C)C(=O)O)c3nsc(N)n3)[C@H]2SC1` [Compound (a), 7β-[(Z)-2-(5-amino-1,2,4-thiadiazol-3-yl)-2-(1-carboxy-1-methylethoxyimino)acetamido]-3-{3-amino-4-({[bis(2-aminoethyl)amino]carbonyl}amino)-2-methyl-1-pyrazolio}methyl-3-cephem-4-carboxylate], with 1 µg/mL (≈ 1.41 µM).
Turning to `Cn1c(N)c(NC(=O)N(CCN)CCN)c[n+]1CC1=C(C(=O)O)N2C(=O)[C@@H](NC(=O)/C(=N\OC(C)(C)C(=O)O)c3nsc(N)n3)[C@H]2SC1.O=S(=O)([O-])O` [Compound (b), 7β-[(Z)-2-(5-amino-1,2,4-thiadiazol-3-yl)-2-(1-carboxy-1-methylethoxyimino)acetamido]-3-{3-amino-4-({[bis(2-aminoethyl)amino]carbonyl}amino)-2-methyl-1-pyrazolio}methyl-3-cephem-4-carboxylic acid hydrogensulfate], inhibition of growth (MIC) required 1 µg/mL.
Then `Cn1c(N)c(NC(=O)N(CCN)CCCN)c[n+]1CC1=C(C(=O)[O-])N2C(=O)[C@@H](NC(=O)/C(=N\OC(C)(C)C(=O)O)c3nsc(N)n3)[C@H]2SC1` [Compound (c), 7β-[(Z)-2-(5-amino-1,2,4-thiadiazol-3-yl)-2-(1-carboxy-1-methylethoxyimino)acetamido]-3-[3-amino-4-({[N-(2-aminoethyl)-N-(3-aminopropyl)amino]carbonyl}-amino)-2-methyl-1-pyrazolio]methyl-3-cephem-4-carboxylate], with 1 µg/mL (≈ 1.38 µM); and `Cn1c(N)c(NC(=O)NC(CN)CN)c[n+]1CC1=C(C(=O)O)N2C(=O)[C@@H](NC(=O)/C(=N\OC(C)(C)C(=O)O)c3nsc(N)n3)[C@H]2SC1.O=S(=O)([O-])O` [Compound (d), 7β-[(Z)-2-(5-amino-1,2,4-thiadiazol-3-yl)-2-(1-carboxy-1-methylethoxyimino)acetamido]-3-(3-amino-4-{3-[2-amino-1-(aminomethyl)ethyl]ureido}-2-methyl-1-pyrazolio)methyl-3-cephem-4-carboxylic acid hydrogensulfate], with 1 µg/mL.
